The results in this text go back to patent US20230140670A1, “FORMULATIONS” (Intellia Therapeutics, Inc., priority 2017, published 2023).

This experiment relates to TTR. Description: Liver editing in mice by NGS (percent editing). The following applies: CD-1 mice; 0.1 mg per kg; 7 days post dose; FIG. 7F-7G. Format: in vivo, mouse. Here is the method: CD-1 female mice, ranging from 6 to 10 weeks of age were used in each study. Animals were weighed and grouped according to body weight for preparing dosing solutions based on group average weight. LNPs were dosed via the lateral tail vein in a volume of 0.2 mL per animal (approximately 10 mL per kilogram body weight). […] Body weight was measured at twenty-four hours post-administration, and animals were euthanized at various time points by exsanguination via cardiac puncture under isoflurane anesthesia. Blood was collected into serum separator tubes or into tubes containing buffered sodium citrate for plasma as described herein. […]
In brief, to quantitatively determine the efficiency of editing at the target location in the genome, genomic DNA was isolated and deep sequencing was utilized to identify the presence of insertions and deletions introduced by gene editing.
PCR primers were designed around the target site (e.g., TTR), and the genomic area of interest was amplified. […] The reads were aligned to the […] after eliminating those having low quality scores. The resulting files containing the reads were mapped to the reference genome (BAM files), where reads that overlapped the target region of interest were selected and the number of wild type reads versus the number of reads which contain an insertion, substitution, or deletion was calculated. […]

Consider `CCCCC/C=C\C/C=C\CCCCCCCC(=O)OCC(COC(=O)CCC(OCCCCCCCC)OCCCCCCCC)COC(=O)OCCCN(CC)CC` (stereo not shown) [Lipid A, (9Z,12Z)-3-((4,4-bis(octyloxy)butanoyl)oxy)-2-((((3-(diethylamino)propoxy)carbonyl)oxy)methyl) propyl octadeca-9,12-dienoate], for which the “potency (TTR knockdown and liver editing)” value was “highest potency”.
